Each block holds one molecule with its values, some of them ahead of it.
Assays:
[1] = Phase III clinical trials; cited from earlier work
[2] = In vitro stability of 10 μM DB104 incubated in fresh human plasma (HRMS / LC-MS detection of DB104, intermediates and L-DOPA); type: in vitro ADME; conditions: for half-life at 10 μM: human, fresh human plasma; for degradation product of DB104 observed in human plasma: human plasma incubation of DB104
Description: (§1) 10 μM DB104 (DB104 is identified above and is one of the Derivatives of the present invention) was incubated in fresh plasma and phosphate buffer saline (PBS) in multiple aliquots, and each aliquot was divided into two equal halves at the following time points: 0, 1, 2, 4, 6, 24, 48, 72, 96, 120, 144, 168, 192, 216, 240, and 264 h. The first half was quenched with ACN:MeOH containing 1% formic acid and analyzed on the high-resolution mass spectroscopy (HRMS) to detect DB104 and all other possible intermediates. Labetalol was used as internal standard (IS). The other half was quenched with perchloric acid and analyzed on an AB Sciex 7500 mass spectrometer to detect L-DOPA. Dopamine-d4 will be used as IS.
(§2) Possible intermediates structures from the steps above are as follows:
(§3) DB104 took about 4 h and 1-4 h to get fully solubilized in human plasma and PBS, respectively. This was evident by initial increase in peak area followed by degradation. All peak area ratios were normalized to the max peak area ratio value observed. […] DB104M2 was not observed in either human plasma or PBS.

[3] = In vitro stability of 10 μM DB104 incubated in phosphate buffer saline (PBS); type: physicochemical; conditions: for half-life at 10 μM: phosphate buffer saline (PBS)
Description: as §1, §2, §3

[4] = cited from earlier work
[5] = cited from earlier work; remark: listed apart in the source

SMILES: CCOC(=O)[C@@H](N)Cc1ccc(O)c(O)c1 [Etilevodopa]
efficacy compared with Levodopa [1]: less efficacious than Levodopa

SMILES: CCN(CC)C(=O)/C(C#N)=C/c1cc(O)c(O)c([N+](=O)[O-])c1 [entacapone]
increase of levodopa plasma exposure ([4]; 200 mg entacapone co-administered with levodopa/carbidopa): 35-40%

SMILES: CCCCCCCCCCCC(=O)Oc1cc(CC(N)C(=O)O)ccc1O (stereo not shown) [DB104M2]
degradation product of DB104 observed in human plasma [2]: not observed
degradation product of DB104 observed in PBS ([3]; PBS incubation of DB104): not observed

SMILES: C[C@@](Cc1ccc(O)c(O)c1)(NN)C(=O)O [Carbidopa]
reduction of the amount of levodopa required to produce a given response ([4]; carbidopa administered with levodopa): 75%

SMILES: CCCCCCCCCCCCOC(=O)C(N)Cc1ccc(O)c(OC(=O)CCCCCCCCCCC)c1 (stereo not shown) [DB104M4]
degradation product of DB104 observed in human plasma [2]: observed
degradation product of DB104 observed in PBS ([3]; PBS incubation of DB104): observed
rank of degradant in PBS ([3]; PBS incubation of DB104): major degradant

Second part, led by results:

time to get fully solubilized in human plasma ([2]; human plasma, initial increase in peak area): about 4 h
half-life at 10 μM ([2]; 10 μM DB104, fresh human plasma, 0-264 h, read-out: In vitro half-life in human plasma (converted)): 13.1 ± 1.4 h
half-life at 10 μM ([2]; human plasma, summary estimate, read-out: in vitro half-life estimated, human plasma (converted)): ~12 h
time over which L-DOPA is formed at detectable amounts, PBS ([3]; L-DOPA formed from DB104 in PBS): up to 72 h
time to get fully solubilized in PBS ([3]; PBS, initial increase in peak area): 1 to 4 h
half-life at 10 μM ([3]; 10 μM DB104, PBS, 0-264 h, read-out: In vitro half-life in PBS (converted)): 12.4 ± 2.6 h
half-life at 10 μM ([3]; PBS, summary estimate, read-out: in vitro half-life estimated, PBS (converted)): ~12 h
SMILES: CCCCCCCCCCCCOC(=O)[C@@H](N)Cc1ccc(OC(=O)CCCCCCCCCCC)c(OC(=O)CCCCCCCCCCC)c1 [DB104, (S)-4-(2-amino-3-(dodecyloxy)-3-oxopropyl)-1,2-phenylene didodecanoate]

degradation product of DB104 observed in human plasma [2]: observed
degradation product of DB104 observed in PBS ([3]; PBS incubation of DB104): observed
SMILES: CCCCCCCCCCCCOC(=O)C(N)Cc1ccc(O)c(O)c1 (stereo not shown) [DB104M3]

degradation product of DB104 observed in human plasma [2]: observed
degradation product of DB104 observed in PBS ([3]; PBS incubation of DB104): observed
SMILES: N[C@@H](Cc1ccc(O)c(O)c1)C(=O)O [Levodopa, (S)-2-amino-3-(3,4-dihydroxyphenyl)propanoic acid, reference compound]
Plasma half-life of levodopa alone [5]: ~0.833 h

degradation product of DB104 observed in human plasma [2]: observed in PBS only
degradation product of DB104 observed in PBS ([3]; PBS incubation of DB104): observed in PBS only
SMILES: CCCCCCCCCCCC(=O)Oc1ccc(CC(N)C(=O)O)cc1OC(=O)CCCCCCCCCCC (stereo not shown) [DB104M1]

— patent publication US12036199B1 (Dynamic Biologics Inc., priority 2023, dated 2024)
